From patent publication US11041009B2, “Glucose responsive insulin comprising a tri-valent sugar cluster for treatment of diabetes” (Merck Sharp & Dohme Corp., priority 2017, dated 2021)

Legend:
[1] = target: T1, human IR(B) (Homo sapiens, UniProt P06213); experiment: Insulin Receptor Phosphorylation Assay (MSD pIR assay; Methods A and B); assay type: cell-based; settings: Method B: IR phosphorylation assay, 384-well with automated liquid dispense; CHO cells expressing human IR(B); read-out: IR Activation IP†
T1 construct: expressed in transfected cells
Description: Insulin Receptor Phosphorylation Assays were performed as follows.
Cells were harvested and frozen in aliquots for use in the MSD pIR assay. Briefly, the frozen cells were plated in either 96-well (40,000 cells/well, Method A) or 384-well (10,000 cells/well, Method B) clear tissue culture plates and allowed to recover. IOC molecules at the appropriate concentrations were added and the cells incubated for 8 min at 37° C. The media was aspirated and chilled MSD cell lysis buffer was added as per MSD kit instructions. The cells were lysed on ice for 40 min and the lysate then mixed for 10 minutes at room temperature. The lysate was transferred to the MSD kit pIR detection plates. The remainder of the assay was carried out following the MSD kit recommended protocol.

[2] = target: T2, Human macrophage mannose receptor 1 (MRC1) (Homo sapiens, UniProt P22897); experiment: MRC1 competition binding assay with Eu-labeled mannosylated-BSA (Methods E and F); settings: Method F: MRC1 assay in a 384-well plate; read-out: MRC1 Binding IP‡
T2 sequence (P22897 19-1456): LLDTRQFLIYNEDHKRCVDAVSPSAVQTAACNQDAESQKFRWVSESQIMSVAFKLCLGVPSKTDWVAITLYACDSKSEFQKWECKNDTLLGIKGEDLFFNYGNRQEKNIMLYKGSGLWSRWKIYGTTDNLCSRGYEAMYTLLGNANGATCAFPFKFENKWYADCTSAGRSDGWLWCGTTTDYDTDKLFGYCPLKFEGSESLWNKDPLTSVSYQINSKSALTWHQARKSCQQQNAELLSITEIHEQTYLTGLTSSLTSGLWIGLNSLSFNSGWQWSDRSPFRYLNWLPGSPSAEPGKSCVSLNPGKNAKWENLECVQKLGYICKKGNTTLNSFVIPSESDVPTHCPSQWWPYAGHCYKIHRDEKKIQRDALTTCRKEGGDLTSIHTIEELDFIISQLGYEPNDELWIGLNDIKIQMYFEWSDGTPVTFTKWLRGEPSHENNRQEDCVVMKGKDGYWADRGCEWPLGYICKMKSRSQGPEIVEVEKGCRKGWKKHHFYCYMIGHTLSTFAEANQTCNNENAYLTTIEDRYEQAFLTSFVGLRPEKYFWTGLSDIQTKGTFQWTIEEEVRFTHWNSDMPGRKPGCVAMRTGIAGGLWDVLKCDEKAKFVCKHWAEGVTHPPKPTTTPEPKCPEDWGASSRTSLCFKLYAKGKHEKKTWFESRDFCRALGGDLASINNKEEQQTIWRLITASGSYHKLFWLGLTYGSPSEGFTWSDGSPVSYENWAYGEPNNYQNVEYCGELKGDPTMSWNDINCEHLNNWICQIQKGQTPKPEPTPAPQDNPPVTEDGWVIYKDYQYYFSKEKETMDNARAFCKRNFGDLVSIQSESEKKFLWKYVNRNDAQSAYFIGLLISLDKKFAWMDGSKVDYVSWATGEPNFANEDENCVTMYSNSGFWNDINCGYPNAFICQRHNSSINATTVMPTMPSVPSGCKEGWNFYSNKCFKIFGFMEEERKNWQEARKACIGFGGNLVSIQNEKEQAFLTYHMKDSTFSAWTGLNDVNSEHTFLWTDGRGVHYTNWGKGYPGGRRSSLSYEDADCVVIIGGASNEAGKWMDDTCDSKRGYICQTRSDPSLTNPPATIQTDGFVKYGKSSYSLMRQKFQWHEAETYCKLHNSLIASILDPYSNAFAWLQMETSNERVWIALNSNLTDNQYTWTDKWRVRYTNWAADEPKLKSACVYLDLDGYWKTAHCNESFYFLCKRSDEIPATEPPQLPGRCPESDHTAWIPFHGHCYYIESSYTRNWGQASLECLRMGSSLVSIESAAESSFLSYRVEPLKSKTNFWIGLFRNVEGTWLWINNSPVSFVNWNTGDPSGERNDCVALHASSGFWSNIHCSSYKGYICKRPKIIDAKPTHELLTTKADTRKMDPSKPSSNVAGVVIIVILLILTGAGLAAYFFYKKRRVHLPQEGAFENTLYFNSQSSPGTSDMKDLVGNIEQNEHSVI
Description: Human macrophage mannose receptor 1 (MRC1) Binding Assays were performed as follows.
The competition binding assay for MRC1 utilized a ligand, mannosylated-BSA labeled with the DELFIA Eu-N1-ITC reagent, as reported in the literature. Assay was performed either in a 96-well plate with 100 μL well volume (Method E) or in a 384-well plate with 25 μL well volume (Method F). […] The antibody was incubated in the plate for 1 hr at room temperature with shaking. The plate was washed with wash buffer 3-5 times followed by addition of MRC1 (2 ng/μl final concentration) in PBS containing 1% stabilizer BSA. The plate was incubated at room temperature with gentle shaking for 1 hr. The plate was washed three times with wash buffer. The IOC molecules in 12.5 μL (or 50 μL depending on plate format) buffer at appropriate concentrations were added followed by 12.5 μL (or 50 μL) Eu-mannosylated-BSA (0.1 nM final concentration) in 50 mM Tris, pH 7.5 containing 100 mM NaCl, 5 mM CaCl2, 1 mM MgCl2 and 0.2% stabilizer BSA. The plate was incubated for 2 hrs at room temperature with shaking followed by washing three times with wash buffer. Perkin Elmer Eu-inducer reagent was added and incubated for 30 min at room temperature prior to detection of the Eu signal (Excitation=340 nm: Emission=615 nm).

T1 sequence (P06213 28-758 limits assumed): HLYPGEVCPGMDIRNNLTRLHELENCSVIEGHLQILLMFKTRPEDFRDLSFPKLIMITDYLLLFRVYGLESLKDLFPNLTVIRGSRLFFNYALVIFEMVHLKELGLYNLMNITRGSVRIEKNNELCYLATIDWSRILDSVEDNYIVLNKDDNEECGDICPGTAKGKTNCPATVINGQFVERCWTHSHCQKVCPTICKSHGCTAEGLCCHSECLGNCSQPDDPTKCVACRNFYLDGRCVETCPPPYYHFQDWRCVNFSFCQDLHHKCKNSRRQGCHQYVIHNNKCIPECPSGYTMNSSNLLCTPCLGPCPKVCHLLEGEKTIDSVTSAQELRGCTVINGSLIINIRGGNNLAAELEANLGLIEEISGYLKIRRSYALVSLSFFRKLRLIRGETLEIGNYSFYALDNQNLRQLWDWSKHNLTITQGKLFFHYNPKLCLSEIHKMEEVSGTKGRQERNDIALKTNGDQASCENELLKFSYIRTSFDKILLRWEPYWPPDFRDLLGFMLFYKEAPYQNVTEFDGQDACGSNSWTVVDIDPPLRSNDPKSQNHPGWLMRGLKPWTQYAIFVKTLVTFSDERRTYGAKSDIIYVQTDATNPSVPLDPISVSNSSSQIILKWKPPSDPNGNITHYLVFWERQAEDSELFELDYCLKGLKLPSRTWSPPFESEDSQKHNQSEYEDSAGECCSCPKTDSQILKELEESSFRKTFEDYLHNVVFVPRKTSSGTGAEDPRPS
T1 sequence (P06213 763-1382 partner limits assumed): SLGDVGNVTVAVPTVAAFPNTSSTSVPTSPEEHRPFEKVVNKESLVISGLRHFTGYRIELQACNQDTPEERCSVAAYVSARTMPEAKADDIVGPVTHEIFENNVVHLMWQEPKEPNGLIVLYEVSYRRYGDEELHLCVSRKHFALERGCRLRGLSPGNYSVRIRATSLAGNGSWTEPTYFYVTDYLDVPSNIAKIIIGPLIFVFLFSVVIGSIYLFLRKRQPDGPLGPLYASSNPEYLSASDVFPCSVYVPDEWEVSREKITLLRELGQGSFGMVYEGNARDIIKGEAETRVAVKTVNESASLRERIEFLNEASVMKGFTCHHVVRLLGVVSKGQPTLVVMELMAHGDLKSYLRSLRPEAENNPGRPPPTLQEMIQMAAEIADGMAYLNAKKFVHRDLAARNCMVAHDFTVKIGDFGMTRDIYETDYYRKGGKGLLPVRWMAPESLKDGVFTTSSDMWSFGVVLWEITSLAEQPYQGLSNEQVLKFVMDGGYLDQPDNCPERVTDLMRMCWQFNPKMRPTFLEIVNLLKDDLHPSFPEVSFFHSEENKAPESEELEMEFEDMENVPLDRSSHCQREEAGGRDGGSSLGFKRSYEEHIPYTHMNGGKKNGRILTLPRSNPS

With `CC[C@H](C)[C@H](NC(=O)CN)C(=O)N[C@H](C(=O)N[C@@H](CCC(=O)O)C(=O)N[C@@H](CCC(N)=O)C(=O)N[C@H]1CSSC[C@@H]2NC(=O)[C@H]([C@@H](C)CC)NC(=O)[C@H](CO)NC(=O)[C@H]([C@@H](C)O)NC(=O)[C@H](CSSC[C@H](NC(=O)[C@H](CC(C)C)NC(=O)[C@H](Cc3c[nH]cn3)NC(=O)[C@H](CCC(N)=O)NC(=O)[C@H](CC(N)=O)NC(=O)[C@@H](NC(=O)[C@H](Cc3ccccc3)NC(=O)CCCCC(=O)N(CC(=O)NCCO[C@@H]3O[C@@H](C)[C@@H](O)[C@@H](O)[C@@H]3O)CC(=O)N(CCO[C@H]3O[C@H](CO)[C@@H](O)[C@H](O)[C@@H]3O)CCO[C@H]3O[C@H](CO)[C@@H](O)[C@H](O)[C@@H]3O)C(C)C)C(=O)NCC(=O)N[C@@H](CO)C(=O)N[C@@H](Cc3c[nH]cn3)C(=O)N[C@@H](CC(C)C)C(=O)N[C@@H](C(C)C)C(=O)N[C@@H](CCC(=O)O)C(=O)N[C@@H](C)C(=O)N[C@@H](CC(C)C)C(=O)N[C@@H](Cc3ccc(O)cc3)C(=O)N[C@@H](CC(C)C)C(=O)N[C@@H](C(C)C)C(=O)N[C@H](C(=O)NCC(=O)N[C@@H](CCC(=O)O)C(=O)N[C@@H](CCCNC(=N)N)C(=O)NCC(=O)N[C@@H](Cc3ccccc3)C(=O)N[C@@H](Cc3ccccc3)C(=O)N[C@@H](Cc3ccc(O)cc3)C(=O)N[C@H](C(=O)N3CCC[C@H]3C(=O)N[C@@H](CCCCNC(=O)CCCCC(=O)N(CC(=O)NCCO[C@@H]3O[C@@H](C)[C@@H](O)[C@@H](O)[C@@H]3O)CC(=O)N(CCO[C@H]3O[C@H](CO)[C@@H](O)[C@H](O)[C@@H]3O)CCO[C@H]3O[C@H](CO)[C@@H](O)[C@H](O)[C@@H]3O)C(=O)N[C@H](C(=O)O)[C@@H](C)O)[C@@H](C)O)CSSC[C@@H](C(=O)N[C@@H](CC(N)=O)C(=O)O)NC(=O)[C@H](Cc3ccc(O)cc3)NC(=O)[C@H](CC(N)=O)NC(=O)[C@H](CCC(=O)O)NC(=O)[C@H](CC(C)C)NC(=O)[C@H](CCC(N)=O)NC(=O)[C@H](Cc3ccc(O)cc3)NC(=O)[C@H](CC(C)C)NC(=O)[C@H](CO)NC2=O)NC1=O)C(C)C` [IOC-62] the EC50 [1] was 0.77 nM and the IC50 [2] was 5.12 nM.
Compound `CC[C@H](C)[C@H](NC(=O)CN)C(=O)N[C@H](C(=O)N[C@@H](CCC(=O)O)C(=O)N[C@@H](CCC(N)=O)C(=O)N[C@H]1CSSC[C@@H]2NC(=O)[C@H]([C@@H](C)CC)NC(=O)[C@H](CO)NC(=O)[C@H]([C@@H](C)O)NC(=O)[C@H](CSSC[C@H](NC(=O)[C@H](CC(C)C)NC(=O)[C@H](Cc3c[nH]cn3)NC(=O)[C@H](CCC(N)=O)NC(=O)[C@H](CC(N)=O)NC(=O)[C@@H](NC(=O)[C@H](Cc3ccccc3)NC(=O)CCCCC(=O)N(CC(=O)NCCO[C@H]3O[C@H](CO)[C@@H](O)[C@H](O)[C@@H]3O)CC(=O)N(CCO[C@H]3O[C@H](CO)[C@@H](O)[C@H](O)[C@@H]3O)CCO[C@H]3O[C@H](CO)[C@@H](O)[C@H](O)[C@@H]3O)C(C)C)C(=O)NCC(=O)N[C@@H](CO)C(=O)N[C@@H](Cc3c[nH]cn3)C(=O)N[C@@H](CC(C)C)C(=O)N[C@@H](C(C)C)C(=O)N[C@@H](CCC(=O)O)C(=O)N[C@@H](C)C(=O)N[C@@H](CC(C)C)C(=O)N[C@@H](Cc3ccc(O)cc3)C(=O)N[C@@H](CC(C)C)C(=O)N[C@@H](C(C)C)C(=O)N[C@H](C(=O)NCC(=O)N[C@@H](CCC(=O)O)C(=O)N[C@@H](CCCNC(=N)N)C(=O)NCC(=O)N[C@@H](Cc3ccccc3)C(=O)N[C@@H](Cc3ccccc3)C(=O)N[C@@H](Cc3ccc(O)cc3)C(=O)N[C@H](C(=O)N3CCC[C@H]3C(=O)N[C@@H](CCCCNC(=O)CCCCC(=O)N(CC(=O)NCCO[C@H]3O[C@H](CO)[C@@H](O)[C@H](O)[C@@H]3O)CC(=O)N(CCO[C@H]3O[C@H](CO)[C@@H](O)[C@H](O)[C@@H]3O)CCO[C@H]3O[C@H](CO)[C@@H](O)[C@H](O)[C@@H]3O)C(=O)N[C@H](C(=O)O)[C@@H](C)O)[C@@H](C)O)CSSC[C@@H](C(=O)N[C@@H](CC(N)=O)C(=O)O)NC(=O)[C@H](Cc3ccc(O)cc3)NC(=O)[C@H](CC(N)=O)NC(=O)[C@H](CCC(=O)O)NC(=O)[C@H](CC(C)C)NC(=O)[C@H](CCC(N)=O)NC(=O)[C@H](Cc3ccc(O)cc3)NC(=O)[C@H](CC(C)C)NC(=O)[C@H](CO)NC2=O)NC1=O)C(C)C` [IOC-61] has an EC50 [1] of 1.13 nM and an IC50 [2] of 17.9 nM.
Compound `CC[C@H](C)[C@H](NC(=O)CNC(=O)CCCCC(=O)N(CC(=O)NCCO[C@H]1O[C@H](CO)[C@@H](O)[C@H](O)[C@@H]1O)CC(=O)N(CCO[C@H]1O[C@H](CO)[C@@H](O)[C@H](O)[C@@H]1O)CCO[C@H]1O[C@H](CO)[C@@H](O)[C@H](O)[C@@H]1O)C(=O)N[C@H](C(=O)N[C@@H](CCC(=O)O)C(=O)N[C@@H](CCC(N)=O)C(=O)N[C@H]1CSSC[C@@H]2NC(=O)[C@H]([C@@H](C)CC)NC(=O)[C@H](CO)NC(=O)[C@H]([C@@H](C)O)NC(=O)[C@H](CSSC[C@H](NC(=O)[C@H](CC(C)C)NC(=O)[C@H](Cc3c[nH]cn3)NC(=O)[C@H](CCC(N)=O)NC(=O)[C@H](CC(N)=O)NC(=O)[C@@H](NC(=O)[C@@H](N)Cc3ccccc3)C(C)C)C(=O)NCC(=O)N[C@@H](CO)C(=O)N[C@@H](Cc3c[nH]cn3)C(=O)N[C@@H](CC(C)C)C(=O)N[C@@H](C(C)C)C(=O)N[C@@H](CCC(=O)O)C(=O)N[C@@H](C)C(=O)N[C@@H](CC(C)C)C(=O)N[C@@H](Cc3ccc(O)cc3)C(=O)N[C@@H](CC(C)C)C(=O)N[C@@H](C(C)C)C(=O)N[C@H](C(=O)NCC(=O)N[C@@H](CCC(=O)O)C(=O)N[C@@H](CCCNC(=N)N)C(=O)NCC(=O)N[C@@H](Cc3ccccc3)C(=O)N[C@@H](Cc3ccccc3)C(=O)N[C@@H](Cc3ccc(O)cc3)C(=O)N[C@H](C(=O)N3CCC[C@H]3C(=O)N[C@@H](CCCCNC(=O)CCCCC(=O)N(CC(=O)NCCO[C@H]3O[C@H](CO)[C@@H](O)[C@H](O)[C@@H]3O)CC(=O)N(CCO[C@H]3O[C@H](CO)[C@@H](O)[C@H](O)[C@@H]3O)CCO[C@H]3O[C@H](CO)[C@@H](O)[C@H](O)[C@@H]3O)C(=O)N[C@H](C(=O)O)[C@@H](C)O)[C@@H](C)O)CSSC[C@@H](C(=O)N[C@@H](CC(N)=O)C(=O)O)NC(=O)[C@H](Cc3ccc(O)cc3)NC(=O)[C@H](CC(N)=O)NC(=O)[C@H](CCC(=O)O)NC(=O)[C@H](CC(C)C)NC(=O)[C@H](CCC(N)=O)NC(=O)[C@H](Cc3ccc(O)cc3)NC(=O)[C@H](CC(C)C)NC(=O)[C@H](CO)NC2=O)NC1=O)C(C)C` [IOC-60] has an EC50 [1] of 1.85 nM and an IC50 [2] of 33.1 nM.
